Assay results published in article PMC6254164, “Synthesis of Novel Hybrid Molecules from Precursors With Known Antiparasitic Activity” (Molecules, 2009).
Like-named read-outs stand apart in the source and are kept apart here.

Key:
[1] = Solubility in DMSO-aqueous medium (bioassay preparation); format: physicochemical
Description: The antiamoebic and antigiardial activities of the prepared hybrid molecules 8, 10-a, 12, their precursors, and 1:1 mixtures of these precursors were tested as described, with some modifications. […] Two milligrams of a test compound or a mixture were dissolved in 10 µL of dimethyl sulfoxide (DMSO) and completed with 1 mL growth medium. […] For each preparation, concentrations of 240, 120, 60, 30, 15, 7.5, 3.5, 1.7, 0.8, 0.4, 0.2, 0.1 µg/mL medium were prepared in a final volume of 15 mL to exclude air from the tube. For the control mixtures of the precursor compounds, 1:1 molar ratios were prepared. […] Each compound or mixture was assayed in duplicate in each of three independent experiments. In each assay, the appropriate controls were performed, including the one without any compound or mixture and another with metronidazole as the positive control. The caps of Entamoeba and Giardia tubes were tightly screwed and wrapped with Parafilm. The tubes were incubated on a 15º horizontal slant at 36-37 °C for 72 hours.

[2] = system: Giardia intestinalis WB strain; assay: In vitro antigiardial activity (parasite count, trypan blue); format: cell-based; details: 72 hours at 36-37 °C, six determinations, read-out: Mean IC50 ± SD, Giardia intestinalis
Description: (§1) Entamoeba histolytica HK-9 strain (ATCC number 30015) was cultured in LYI-S-2 medium supplemented with antibiotics. Giardia intestinalis WB strain (ATCC number 30957) was grown in a modified YI-S medium with antibiotics. Both parasites were cultivated in 15-mL screw-capped borosilicate glass tubes containing 13 mL medium. The tubes were incubated on a 15º horizontal slant at (36-37) ºC. Culture maintenance and subculturing was performed as described Entamoeba and Giardia were harvested from confluent cultures by chilling of the tubes on ice for 5-10 min. to detach cells, followed by centrifugation at 800 x g for 5 min.
(§2) Two milligrams of a test compound or a mixture were dissolved in 10 µL of dimethyl sulfoxide (DMSO) and completed with 1 mL growth medium. The solutions were filter sterilized using 0.22 µm syringe filters and the appropriate volumes of the solutions were taken to prepare the concentrations of each compound or reference drug in 15-mL screw-capped borosilicate glass tubes. […] For the control mixtures of the precursor compounds, 1:1 molar ratios were prepared. Each tube was inoculated with 20,000 cells of the parasite under testing (Entamoeba or Giardia). Each compound or mixture was assayed in duplicate in each of three independent experiments. In each assay, the appropriate controls were performed, including the one without any compound or mixture and another with metronidazole as the positive control. The caps of Entamoeba and Giardia tubes were tightly screwed and wrapped with Parafilm. The tubes were incubated on a 15º horizontal slant at 36-37 °C for 72 hours.
(§3) The parasites in each tube were counted using the standard hemacytometer at the 10X objective. In each count, trypan blue was employed to distinguish live from dead parasites. To permit detachment of Entamoeba and Giardia, the tubes were placed on ice for few minutes and the parasites were then centrifuged at 1000 x g for 10 min. The supernatant was discarded and 1 mL fresh medium was added to each tube. The final suspension was prepared by mixing 25 µL of the parasite suspension in each tube with 100 µL of 0.4 % trypan blue in phosphate buffered saline (PBS). The 50% inhibitory concentration (IC50) was employed as a parameter for biological activity. The IC50 is the concentration of compounds which cuts the number of parasites to half that in the negative control (growth medium + DMSO + parasites).

[3] = system: Entamoeba histolytica HK-9 strain; assay: In vitro antiamoebic activity (parasite count, trypan blue); format: cell-based; details: 72 hours at 36-37 °C, six determinations, read-out: Mean IC50 ± SD, Entamoeba histolytica
Description: as §1, §2, §3

Hep-2 cells = assay: cells; format: cell-based; details: for IC50: 48 hour incubation, six determinations, read-out: Mean IC50 ± SD, Hep-2 cells
Description: (§4) The cytotoxicity of the hybrid compounds and the reference drug, metronidazole, was investigated on Hep-2 and Vero cells using the standard cytotoxicity assay and the trypan blue exclusion method. A cell suspension (10^5 cells/mL RPMI medium-10% inactivated foetal calf serum) was prepared from confluent cultures and 100 µL portions of the suspension were added to the wells of 96-well plates. The cells were incubated for 24 h at 37 °C and 5 % CO2 and the medium in each well was then replaced with fresh 150 µL medium. Solutions of the compounds or the reference drug were prepared and sterilized as described in “Antiamoebic and antigiardial activity” section above. Then, 150 µL-two fold serial dilutions of each of the compounds and the reference drug starting at a concentration of 2000 µg/mL in culture medium were prepared in the plates. After 48 hour incubation at 37 °C and 5 % CO2, the number of cells in each well was determined as follows: The medium in each well was gently replaced with 100 µL of 0.25% (w/v) trypsin-0.53 mM EDTA solution and the plates were incubated for 5 min. at 37 °C to allow cell detachment. Two-hundred microliters of trypan blue solution were added to each well and the plates were, then, placed on ice. The cells were counted in a hemacytometer at the 10X objective. Each compound was assayed in duplicate in each of three independent experiments. In each assay the negative controls (without any compound or reference drug) were included in duplicates.

Vero cells = assay: Cytotoxicity assay, trypan blue exclusion; format: cell-based; details: 48 hour incubation, six determinations, read-out: Mean IC50 ± SD, Vero cells
Description: as §4

In the case of `O=C(/C=C\c1ccc([N+](=O)[O-])o1)N1CCN(c2ccnc3cc(Cl)ccc23)CC1` [Compound 10-b], the “solubility in DMSO-aqueous medium” value [1] is reported as “insolubility”.
Compound `Cc1ncc([N+](=O)[O-])n1CCN` [Compound 6, 2-(2-Methyl-5-1H-nitroimidazolyl)ethylamine, reference compound] has an IC50 ([2]; Giardia duodenalis, 72 h) of 18.5 ± 1.43 µM and an IC50 ([3]; Entamoeba histolytica, 72 h) of 18.2 ± 2.28 µM.
In the case of `Cc1ncc([N+](=O)[O-])n1CCO` [Metronidazole, metronidazole, reference compound], the IC50 (Hep-2 cells; Homo sapiens, HEp-2) is reported as 1460 ± 18.3 µM, the “IC50 ratio, Hep-2 and Vero cells versus the tested parasites” value (Hep-2 cells; IC50 against Hep-2 and Vero cells over IC50 against Entamoeba and Giardia) is reported as “around 270 times” and the IC50 ([2]; Giardia duodenalis, 72 h) is reported as 5.7 ± 0.78 µM. The IC50 ([3]; Entamoeba histolytica, 72 h) was 5.2 ± 1.03 µM and the IC50 (Vero cells; Chlorocebus sabaeus, Vero) was 1500 ± 17.8 µM.
With `O=C(O)/C=C/c1ccc([N+](=O)[O-])o1` [Compound 7, 5-Nitro-2-furylacrilic acid, reference compound] the IC50 ([2]; Giardia duodenalis, 72 h) was 88.4 ± 7.1 µM and the IC50 ([3]; Entamoeba histolytica, 72 h) was 94.3 ± 9.76 µM.
With `Clc1ccc2c(N3CCNCC3)ccnc2c1` [Compound 9, 7-Chloro-4-(piperazine-1-yl) quinoline, reference compound] the IC50 ([2]; Giardia duodenalis, 72 h) was 67.5 ± 8.67 µM and the IC50 ([3]; Entamoeba histolytica, 72 h) was 55.7 ± 5 µM.
Compound “3-(5-nitrofuran-2-yl)-N-[2-(5-nitroimidazol-1-yl)ethyl]acrylamide [Compound 8]” has an IC50 (Hep-2 cells) of 108 ± 8.02 µM, an IC50 [2] of 5.56 ± 0.37 µM and an IC50 [3] of 5.32 ± 0.21 µM. The IC50 (Vero cells) was 90.5 ± 7.83 µM.
For `O=C(/C=C/c1ccc([N+](=O)[O-])o1)N1CCN(c2ccnc3cc(Cl)ccc23)CC1` [Compound 10-a], the “cytotoxicity at the lethal concentrations against the parasites” value (Hep-2 cells; Hep-2 and Vero cells) was “non-cytotoxic”, the IC50 (Hep-2 cells; Homo sapiens, HEp-2) was 574 ± 7.77 µM and the IC50 [2] was 145 ± 5.37 µM. The IC50 ([2]; Giardia duodenalis, 72 h) was roughly 140 µM, the IC50 [3] was 140 ± 6.37 µM and the IC50 ([3]; Entamoeba histolytica, 72 h) was roughly 140 µM. It also gave an IC50 (Vero cells; Chlorocebus sabaeus, Vero) of 593 ± 8.71 µM.
